Laboratory results taken from patent US6833456B2, “Indolyl-urea derivatives of thienopyridines useful as antiangiogenic agents, and methods for their use” (Agouron Pharmaceuticals, Inc., priority 2002, dated 2004).
Values joined by “and” are separate entries in the source; they are usually repeats but may differ in a detail not shown here. Equal entries are not always repeated.

Tests used:
KDR (VEGFR2) = molecular target: T1, KDR (VEGFR2) (Homo sapiens, UniProt P35968); assay: KDR (VEGFR2) phosphorylation in PAE-KDR cells assay; type: cell-based; conditions: PAE cells overexpressing human KDR, VEGF stimulated; read-out: PAE KDR autophos IC50
T1 construct: expressed in transfected cells; host or cells: porcine aorta endothelial (PAE) cells
T1 sequence (P35968 20-1356): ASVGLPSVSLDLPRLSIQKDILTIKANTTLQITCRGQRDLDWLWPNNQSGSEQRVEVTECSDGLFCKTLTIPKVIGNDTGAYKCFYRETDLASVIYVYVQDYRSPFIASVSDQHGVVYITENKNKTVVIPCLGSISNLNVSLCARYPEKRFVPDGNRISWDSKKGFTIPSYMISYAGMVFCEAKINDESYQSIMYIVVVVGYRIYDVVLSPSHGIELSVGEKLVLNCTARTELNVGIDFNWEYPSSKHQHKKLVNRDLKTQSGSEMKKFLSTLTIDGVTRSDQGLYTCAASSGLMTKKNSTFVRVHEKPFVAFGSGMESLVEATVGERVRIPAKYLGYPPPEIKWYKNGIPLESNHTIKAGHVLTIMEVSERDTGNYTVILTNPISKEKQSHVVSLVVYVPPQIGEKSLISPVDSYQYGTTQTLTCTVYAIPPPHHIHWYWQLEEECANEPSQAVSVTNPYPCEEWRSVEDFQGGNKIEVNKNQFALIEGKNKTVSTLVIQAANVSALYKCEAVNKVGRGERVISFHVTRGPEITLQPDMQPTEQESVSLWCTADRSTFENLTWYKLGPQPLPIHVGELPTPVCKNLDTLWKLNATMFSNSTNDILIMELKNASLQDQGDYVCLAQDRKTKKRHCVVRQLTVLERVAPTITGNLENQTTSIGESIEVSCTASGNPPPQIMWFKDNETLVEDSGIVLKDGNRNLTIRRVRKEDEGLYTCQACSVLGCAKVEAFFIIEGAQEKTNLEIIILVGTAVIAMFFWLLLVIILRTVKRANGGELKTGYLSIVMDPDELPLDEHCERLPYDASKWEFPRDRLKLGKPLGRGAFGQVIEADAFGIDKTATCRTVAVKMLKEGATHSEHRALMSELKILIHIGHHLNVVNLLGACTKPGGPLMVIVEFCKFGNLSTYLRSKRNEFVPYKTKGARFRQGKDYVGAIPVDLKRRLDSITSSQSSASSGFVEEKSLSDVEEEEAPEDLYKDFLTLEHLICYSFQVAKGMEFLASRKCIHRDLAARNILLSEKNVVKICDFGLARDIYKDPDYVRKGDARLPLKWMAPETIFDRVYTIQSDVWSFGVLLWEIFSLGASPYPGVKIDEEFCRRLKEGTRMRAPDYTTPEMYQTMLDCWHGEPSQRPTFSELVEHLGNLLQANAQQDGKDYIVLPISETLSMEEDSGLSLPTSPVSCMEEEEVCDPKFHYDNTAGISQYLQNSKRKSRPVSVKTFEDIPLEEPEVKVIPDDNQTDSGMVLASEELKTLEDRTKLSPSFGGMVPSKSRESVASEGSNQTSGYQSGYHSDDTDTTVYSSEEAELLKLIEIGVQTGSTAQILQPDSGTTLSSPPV
How it was run: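 PAE cells overexpressing human KDR, serum-starved 16 h (0.1% FBS), treated with compound 1 h at 37° C (0.5% DMSO), then stimulated 8 min with 500 ng/ml VEGF plus 2 mM Na3VO4. Lysate KDR phosphotyrosine measured by capture ELISA (anti-pY HRP, 450 nm); IC50 by four-parameter fit.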

PDGFRβ = molecular target: T2, PDGFRβ (Homo sapiens, UniProt P09619); assay: PAE-PDGFRβ phosphorylation in PAE-PDGFRB cells assay; type: cell-based; conditions: PAE cells overexpressing human PDGFRβ, PDGF-BB stimulated; read-out: PAE PDGFR autophos IC50
T2 construct: expressed in transfected cells; host or cells: porcine aorta endothelial (PAE) cells
T2 sequence (P09619 33-1106): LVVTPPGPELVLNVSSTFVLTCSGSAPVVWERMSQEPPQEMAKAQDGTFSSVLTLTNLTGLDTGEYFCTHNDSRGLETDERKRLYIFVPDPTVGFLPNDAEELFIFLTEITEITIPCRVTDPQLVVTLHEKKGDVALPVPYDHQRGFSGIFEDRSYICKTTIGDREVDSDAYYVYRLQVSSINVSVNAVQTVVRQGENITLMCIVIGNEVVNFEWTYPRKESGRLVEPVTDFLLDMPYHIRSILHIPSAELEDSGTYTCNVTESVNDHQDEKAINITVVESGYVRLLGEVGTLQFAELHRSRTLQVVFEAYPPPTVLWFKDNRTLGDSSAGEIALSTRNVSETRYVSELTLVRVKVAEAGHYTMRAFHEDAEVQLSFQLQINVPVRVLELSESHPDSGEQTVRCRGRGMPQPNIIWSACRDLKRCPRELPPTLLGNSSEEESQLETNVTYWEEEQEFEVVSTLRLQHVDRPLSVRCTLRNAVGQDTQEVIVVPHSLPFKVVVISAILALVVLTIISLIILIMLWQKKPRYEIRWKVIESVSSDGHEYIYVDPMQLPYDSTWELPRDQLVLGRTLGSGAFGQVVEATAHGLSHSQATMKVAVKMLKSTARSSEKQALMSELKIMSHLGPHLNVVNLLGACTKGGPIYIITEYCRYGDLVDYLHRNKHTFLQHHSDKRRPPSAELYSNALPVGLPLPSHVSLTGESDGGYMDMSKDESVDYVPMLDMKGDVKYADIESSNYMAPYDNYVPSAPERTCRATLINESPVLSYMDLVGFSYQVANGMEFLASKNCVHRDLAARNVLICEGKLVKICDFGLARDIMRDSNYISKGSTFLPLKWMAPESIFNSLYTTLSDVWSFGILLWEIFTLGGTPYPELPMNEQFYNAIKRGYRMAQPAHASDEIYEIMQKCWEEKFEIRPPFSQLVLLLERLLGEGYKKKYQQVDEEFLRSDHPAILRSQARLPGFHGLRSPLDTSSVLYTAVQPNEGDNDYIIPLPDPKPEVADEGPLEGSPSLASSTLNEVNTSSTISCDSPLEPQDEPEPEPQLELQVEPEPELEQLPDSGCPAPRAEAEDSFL
How it was run: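 PAE cells overexpressing human PDGFRβ, serum-starved 16 h (0.1% FBS), compound 1 h at 37° C (0.5% DMSO), then 1 μg/mL PDGF-BB with 2 mM Na3VO4 for 8 min. Receptor captured by anti-PDGFRβ, phosphotyrosine detected by HRP-PY20/TMB at 450 nm; IC50 by four-parameter fit.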

**Q.** Which results are given for `CNC(=O)n1c(C)cc2cc(Nc3ccnc4cc(C(=O)N5CCC[C@@H]5CO)sc34)ccc21` [Example 1a, 5-[2-(2R-Hydroxymethyl-pyrrolidine-1-carbonyl)-thieno[3,2-b]pyridin-7-ylamino]-2-methyl-indole-1-carboxylic acid methylamide]?
**A.** IC50 (KDR (VEGFR2)): 1.06 nM; IC50 (PDGFRβ): 239 nM

**Q.** With `CNC(=O)n1c(C)cc2cc(Nc3ccnc4cc(C(=O)N5CCC[C@@H]5COC)sc34)ccc21` [Example 1b, 5-[2-(2R-Methoxymethyl-pyrrolidine-1-carbonyl)-thieno[3,2-b]pyridin-7-ylamino]-2-methyl-indole-1-carboxylic acid methylamide] as the molecule, how does the IC50 (KDR (VEGFR2)) read?
**A.** 0.28 nM and 0.25 nM

**Q.** What about the IC50 (PDGFRβ) of the same molecule?
**A.** 73 nM and 86 nM

**Q.** `Cc1cc2cc(Nc3ccnc4cc(C(=O)N5CCC[C@@H]5CO)sc34)ccc2n1C(=O)NC1CC1` [Example 1c, 5-[2-(2R-Hydroxymethyl-pyrrolidine-1-carbonyl)-thieno[3,2-b]pyridin-7-ylamino]-2-methyl-indole-1-carboxylic acid cyclopropylamide] was tested. Which IC50 (PDGFRβ) did it give?
**A.** > 100 nM and 179 nM

**Q.** `Cc1cc2cc(Nc3ccnc4cc(C(=O)N5CC[C@H](O)C5)sc34)ccc2n1C(=O)NC1CC1` [Example 1k, 5-[2-(3S-Hydroxy-pyrrolidine-1-carbonyl)-thieno[3,2-b]pyridin-7-ylamino]-2-methyl-indole-1-carboxylic acid cyclopropylamide] was tested. Which IC50 (KDR (VEGFR2)) did it give?
**A.** 2.1 nM and 5.4 nM and 4.74 nM

**Q.** And the IC50 (PDGFRβ)?
**A.** > 1000 nM

**Q.** How did the IC50 (PDGFRβ) turn out when `CNC(=O)n1c(C)cc2cc(Nc3ccnc4cc(C(=O)N5CC[C@@H](OC)C5)sc34)ccc21` [Example 1l, 5-[2-(3R-Methoxy-pyrrolidine-1-carbonyl)-thieno[3,2-b]pyridin-7-ylamino]-2-methyl-indole-1-carboxylic acid methylamide] was run?
**A.** 49 nM and 45 nM and 95 nM

**Q.** With `CNC(=O)n1c(C)cc2cc(Nc3ccnc4cc(C(=O)N5CC[C@@H](O)C5)sc34)ccc21` [Example 1n, 5-[2-(3R-Hydroxy-pyrrolidine-1-carbonyl)-thieno[3,2-b]pyridin-7-ylamino]-2-methyl-indole-1-carboxylic acid methylamide] as the molecule, how does the IC50 (KDR (VEGFR2)) read?
**A.** 4.01 nM and 2.77 nM

**Q.** And the IC50 (PDGFRβ)?
**A.** > 1000 nM and 2600 nM

**Q.** Which IC50 (KDR (VEGFR2)) does the source give for `C#CCNC(=O)n1c(C)cc2cc(Nc3ccnc4cc(C(=O)N5CC[C@@H](O)C5)sc34)ccc21` [Example 1o, 5-[2-(3R-Hydroxy-pyrrolidine-1-carbonyl)-thieno[3,2-b]pyridin-7-ylamino]-2-methyl-indole-1-carboxylic acid prop-2-ynylamide] here?
**A.** 1.6 nM

**Q.** And the IC50 (PDGFRβ)?
**A.** 533 nM

**Q.** With `Cc1cc2cc(Nc3ccnc4cc(-c5nccn5C)sc34)ccc2n1C(=O)NC1CC1` [Example 2d, 5-(2-[1-methyl-1H-imidazol-2-yl]thieno[3,2-b]pyridin-7-ylamino)-2-methylindole-1-carboxylic acid cyclopropylamide] as the molecule, how does the IC50 (PDGFRβ) read?
**A.** 11 nM and 25 nM

**Q.** For `Cc1cc2cc(Nc3ccnc4cc(C(=O)N5CCC[C@H]5CO)sc34)ccc2n1C(=O)NC1CC1` [Example 2e, 5-(2-[(S)-2-(hydroxymethyl)pyrrolidine-1-carbonyl]thieno[3,2-b]pyridin-7-ylamino)-2-methylindole-1-carboxylic acid cyclopropylamide], which IC50 (KDR (VEGFR2)) is on record?
**A.** 1.32 nM and 1.38 nM

**Q.** What about the IC50 (PDGFRβ) of the same molecule?
**A.** > 1000 nM

**Q.** What does the source list for `CNC(=O)n1c(C)cc2cc(Nc3ccnc4cc(-c5nc(C(C)(C)O)cs5)sc34)ccc21` [Example 3a, 5-{2-[4-(1-Hydroxy-1-methyl-ethyl)-thiazol-2-yl]-thieno[3,2-b]pyridin-7-ylamino}-2-methyl-indole-1-carboxylic acid methylamide]?
**A.** IC50 (KDR (VEGFR2)): 0.72 nM and 0.33 nM and 0.35 nM; IC50 (PDGFRβ): 84 nM and 99 nM

**Q.** Which IC50 (KDR (VEGFR2)) does the source give for `Cc1cc2cc(Nc3ccnc4cc(-c5nc(C(C)(C)O)cs5)sc34)ccc2n1C(=O)NC1CC1` [Example 3b, 5-{2-[4-(1-Hydroxy-1-methyl-ethyl)-thiazol-2-yl]-thieno[3,2-b]pyridin-7-ylamino}-2-methyl-indole-1-carboxylic acid cyclopropylamide] here?
**A.** 0.32 nM and 0.444 nM

**Q.** What about the IC50 (PDGFRβ) of the same molecule?
**A.** 142 nM and 125 nM

**Q.** How did the IC50 (KDR (VEGFR2)) turn out when `CCOC(=O)c1csc(-c2cc3nccc(Nc4ccc5c(c4)cc(C)n5C(=O)NC)c3s2)n1` [Example 3c, 2-[7-(2-Methyl-1-methylcarbamoyl-1H-indol-5-ylamino)-thieno[3,2-b]pyridin-2-yl]-thiazole-4-carboxylic acid ethyl ester] was run?
**A.** 0.1 nM and 0.041 nM

**Q.** What about the IC50 (PDGFRβ) of the same molecule?
**A.** 631 nM

**Q.** How did the IC50 (KDR (VEGFR2)) turn out when `CNC(=O)n1c(C)cc2cc(Nc3cccc4cc(C(=O)N5C[C@H](OC)C[C@H]5CO)sc34)ccc21` [Example 3f, 5-[2-((2S,4R)-2-Hydroxymethyl-4-methoxy-pyrrolidine-1-carbonyl)-benzo[b]thiophen-7-ylamino]-2-methyl-indole-1-carboxylic acid methylamide] was run?
**A.** 1.85 nM

**Q.** What about the IC50 (PDGFRβ) of the same molecule?
**A.** > 1000 nM

**Q.** How did the IC50 (KDR (VEGFR2)) turn out when `CO[C@@H]1C[C@@H](CO)N(C(=O)c2cc3cccc(Nc4ccc5c(c4)cc(C)n5C(=O)NC4CC4)c3s2)C1` [Example 3g, 5-[2-((2S,4R)-2-Hydroxymethyl-4-methoxy-pyrrolidine-1-carbonyl)-benzo[b]thiophen-7-ylamino]-2-methyl-indole-1-carboxylic acid cyclopropylamide] was run?
**A.** 2.6 nM

**Q.** What about the IC50 (PDGFRβ) of the same molecule?
**A.** > 1000 nM

**Q.** Which IC50 (KDR (VEGFR2)) does the source give for `CNC(=O)n1c(C)cc2cc(Oc3ccnc4cc(C(=O)N5C[C@H](OC)C[C@H]5CO)sc34)ccc21` [Example 3o, 5-[2-(2-Hydroxymethyl-4-methoxy-pyrrolidine-1-carbonyl)-thieno[3,2-b]pyridin-7-yloxy]-2-methyl-indole-1-carboxylic acid methylamide] here?
**A.** 0.43 nM and 0.52 nM

**Q.** And the IC50 (PDGFRβ)?
**A.** 599 nM and 126 nM

**Q.** For `CNC(=O)n1c(C)cc2cc(Oc3ccnc4cc(C(=O)N5CCC[C@H]5COC)sc34)ccc21` [Example 4a, 5-(2-[(S)-2-(methoxymethyl)pyrrolidine-1-carbonyl]thieno[3,2-b]pyridin-7-yloxy)-2-methylindole-1-carboxylic acid methylamide], which IC50 (PDGFRβ) is on record?
**A.** 16.5 nM

**Q.** How did the IC50 (KDR (VEGFR2)) turn out when `COC[C@@H]1CCCN1C(=O)c1cc2nccc(Oc3ccc4c(c3)cc(C)n4C(=O)NCC#CCO)c2s1` [Example 4d, 5-(2-[(S)-2-(methoxymethyl)pyrrolidine-1-carbonyl]thieno[3,2-b]pyridin-7-yloxy)-2-methylindole-1-carboxylic acid (4-hydroxybut-2-ynyl)amide] was run?
**A.** 0.37 nM and 0.26 nM and 0.55 nM

**Q.** And the IC50 (PDGFRβ)?
**A.** 76 nM and 71 nM and 64 nM

**Q.** `CNC(=O)n1c(C)cc2cc(Oc3ccnc4cc(C(=O)N5CCC[C@@H]5COC)sc34)ccc21` [Example 4e, 5-[2-(2R-Methoxymethyl-pyrrolidine-1-carbonyl)-thieno[3,2-b]pyridin-7-yloxy]-2-methyl-indole-1-carboxylic acid methylamide] was tested. Which IC50 (PDGFRβ) did it give?
**A.** 16.7 nM

**Q.** What does the source list for `C#CCNC(=O)n1c(C)cc2cc(Oc3ccnc4cc(C(=O)N5CC[C@H](OC)C5)sc34)ccc21` [Example 4f, 5-[2-(3S-Methoxy-pyrrolidine-1-carbonyl)-thieno[3,2-b]pyridin-7-yloxy]-2-methyl-indole-1-carboxylic acid prop-2-ynylamide]?
**A.** IC50 (KDR (VEGFR2)): 0.149 nM; IC50 (PDGFRβ): 14 nM

**Q.** `CNC(=O)n1c(C)cc2cc(Oc3ccnc4cc(C(=O)N5CC[C@H](OC)C5)sc34)ccc21` [Example 4g, 5-[2-(3S-Methoxy-pyrrolidine-1-carbonyl)-thieno[3,2-b]pyridin-7-yloxy]-2-methyl-indole-1-carboxylic acid methylamide] was tested. Which IC50 (KDR (VEGFR2)) did it give?
**A.** 0.58 nM and 0.98 nM

**Q.** What about the IC50 (PDGFRβ) of the same molecule?
**A.** 10.5 nM

**Q.** For `CO[C@H]1CCN(C(=O)c2cc3nccc(Oc4ccc5c(c4)cc(C)n5C(=O)NC4CC4)c3s2)C1` [Example 4h, 5-[2-(3S-Methoxy-pyrrolidine-1-carbonyl)-thieno[3,2-b]pyridin-7-yloxy]-2-methyl-indole-1-carboxylic acid cyclopropylamide], which IC50 (KDR (VEGFR2)) is on record?
**A.** 0.116 nM and 0.34 nM and 0.21 nM

**Q.** What about the IC50 (PDGFRβ) of the same molecule?
**A.** 19 nM
